From PubChem BioAssay AID256 (DTP/NCI, 2004)
Several values for one entry are separate records, joined by “and”; a condition that tells them apart may be missing. Equal values may be shown once. Inconclusive results and toxic doses are left out. How the source made its calls: active means survival T/C of 150% or more; inactive means T/C below 125% in these data.

Tested on: CD2F1 mice, L1210 leukemia ip, survival T/C
Test: NCI In Vivo Anticancer Drug Screen. Data for tumor model L1210 Leukemia (intraperitoneal) in CD2F1 (CDF1) mice
Settings: endpoint: mean survival time, higher = longer survival
Outline: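 Ratio T/C, where T is the treated-group value and C the vehicle-dosed control value, from mice implanted with a transplantable tumor.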

[1] = dose: 100.0 mg/kg/injection, schedule: Q04DX003 (ip), vehicle: saline with Tween-80
[2] = dose: 200.0 mg/kg/injection, schedule: Q04DX003 (ip), vehicle: saline with Tween-80
[3] = dose: 400.0 mg/kg/injection, schedule: Q04DX003 (ip), vehicle: saline with Tween-80
[4] = dose: 100.0 mg/kg/injection, schedule: Q01DX009 (ip), vehicle: saline
[5] = dose: 100.0 mg/kg/injection, schedule: Q04DX003 (ip), vehicle: saline
[6] = dose: 200.0 mg/kg/injection, schedule: Q01DX009 (ip), vehicle: saline
[7] = dose: 12.5 mg/kg/injection, schedule: Q01DX009 (ip), vehicle: Klucel (hydroxypropylcellulose) (HPC)
[8] = dose: 25.0 mg/kg/injection, schedule: Q01DX009 (ip), vehicle: Klucel (hydroxypropylcellulose) (HPC)
[9] = dose: 50.0 mg/kg/injection, schedule: Q01DX009 (ip), vehicle: Klucel (hydroxypropylcellulose) (HPC)
[10] = dose: 100.0 mg/kg/injection, schedule: Q04DX002 (ip), vehicle: saline with Tween-80

Measured: T/C

Nc1n[n+](-c2ccc(Cl)cc2)no1
inactive: dose: 1.56 mg/kg/injection, schedule: Q01DX009 (ip), vehicle: water 92 % of control | dose: 3.12 mg/kg/injection, schedule: Q01DX009 (ip), vehicle: water 97 % of control and 112 % of control | dose: 6.25 mg/kg/injection, schedule: Q01DX009 (ip), vehicle: water 93 % of control and 96 % of control | dose: 12.5 mg/kg/injection, schedule: Q01DX009 (ip), vehicle: water 95 % of control and 98 % of control | dose: 25.0 mg/kg/injection, schedule: Q01DX009 (ip), vehicle: water 103 % of control and 104 % of control | dose: 50.0 mg/kg/injection, schedule: Q01DX009 (ip), vehicle: water 114 % of control

O=C(N/N=C/c1ccc2c(c1)CCC2)c1cc2ccccc2cc1O
inactive: dose: 100.0 mg/kg/injection, schedule: Q01DX001 (ip), vehicle: saline with Tween-80 92 % of control | [1] 95 % of control | dose: 200.0 mg/kg/injection, schedule: Q01DX001 (ip), vehicle: saline with Tween-80 92 % of control | [2] 94 % of control | dose: 400.0 mg/kg/injection, schedule: Q01DX001 (ip), vehicle: saline with Tween-80 87 % of control | [3] 89 % of control

COc1ccc(C(=O)C(c2ccccc2)c2ccccc2)cc1
inactive: [1] 93 % of control | [2] 94 % of control | [3] 90 % of control

Nc1ccn(C2OC(CO)C(O)C2O)c(=O)n1 (configuration not stated)
inactive: dose: 8.0 mg/kg/injection, schedule: Q X X004 (other), vehicle: saline 86 % of control | dose: 16.0 mg/kg/injection, schedule: Q01DX008 (ip), vehicle: saline 95 % of control | dose: 16.0 mg/kg/injection, schedule: Q03HX024 (oral), vehicle: saline 100 % of control | dose: 30.0 mg/kg/injection, schedule: Q03HX024 (ip), vehicle: saline 93 % of control | dose: 32.0 mg/kg/injection, schedule: Q01DX008 (ip), vehicle: saline 93 % of control | dose: 32.0 mg/kg/injection, schedule: Q01DX008 (oral), vehicle: saline 100 % of control | dose: 64.0 mg/kg/injection, schedule: Q01DX008 (ip), vehicle: saline 98 % of control | dose: 64.0 mg/kg/injection, schedule: Q01DX008 (oral), vehicle: saline 98 % of control | [4] 100 % of control | [5] 96 % of control | dose: 128.0 mg/kg/injection, schedule: Q01DX001 (ip), vehicle: saline 120 % of control | dose: 128.0 mg/kg/injection, schedule: Q01DX008 (ip), vehicle: saline 95 % of control | dose: 128.0 mg/kg/injection, schedule: Q03HX024 (oral), vehicle: saline 110 % of control and 95 % of control | dose: 128.0 mg/kg/injection, schedule: Q04DX003 (ip), vehicle: saline 98 % of control | dose: 128.0 mg/kg/injection, schedule: Q04DX003 (oral), vehicle: saline 120 % of control and 100 % of control | [6] 93 % of control | dose: 256.0 mg/kg/injection, schedule: Q01DX001 (ip), vehicle: saline 91 % of control | dose: 256.0 mg/kg/injection, schedule: Q01DX001 (oral), vehicle: saline 98 % of control | dose: 256.0 mg/kg/injection, schedule: Q01DX009 (ip), vehicle: saline 91 % of control | dose: 256.0 mg/kg/injection, schedule: Q04DX003 (oral), vehicle: saline 98 % of control | dose: 512.0 mg/kg/injection, schedule: Q01DX001 (ip), vehicle: saline 120 % of control and 97 % of control | dose: 512.0 mg/kg/injection, schedule: Q01DX001 (oral), vehicle: saline 100 % of control | dose: 512.0 mg/kg/injection, schedule: Q04DX003 (ip), vehicle: saline 96 % of control | dose: 600.0 mg/kg/injection, schedule: Q04DX002 (ip), vehicle: saline 94 % of control | dose: 1024.0 mg/kg/injection, schedule: Q01DX001 (ip), vehicle: saline 90 % of control | dose: 1024.0 mg/kg/injection, schedule: Q01DX009 (ip), vehicle: saline 95 % of control | dose: 1024.0 mg/kg/injection, schedule: Q01DX009 (oral), vehicle: saline 98 % of control | dose: 1024.0 mg/kg/injection, schedule: Q04DX003 (oral), vehicle: saline 100 % of control | dose: 1200.0 mg/kg/injection, schedule: Q04DX002 (ip), vehicle: saline 91 % of control | dose: 2400.0 mg/kg/injection, schedule: Q04DX003 (ip), vehicle: saline 96 % of control

CC(=O)C1CCC2C3CC=C4CC(OC(=O)CCC(C)C)CCC4(C)C3CCC12C (configuration not stated)
inactive: [1] 95 % of control | [2] 95 % of control | [3] 92 % of control

Cc1cc(N(CCOS(C)(=O)=O)CCOS(C)(=O)=O)ccc1C=Nc1ccc(-c2nc(Cc3ccccc3)sc2C)cc1
inactive: [7] 103 % of control and 106 % of control | [8] 117 % of control and 124 % of control | [9] 117 % of control and 111 % of control | dose: 100.0 mg/kg/injection, schedule: Q01DX009 (ip), vehicle: Klucel (hydroxypropylcellulose) (HPC) 118 % of control and 120 % of control | dose: 200.0 mg/kg/injection, schedule: Q01DX009 (ip), vehicle: Klucel (hydroxypropylcellulose) (HPC) 110 % of control | dose: 400.0 mg/kg/injection, schedule: Q01DX009 (ip), vehicle: Klucel (hydroxypropylcellulose) (HPC) 103 % of control

CCCC(=O)/C=C\c1ccccc1
inactive: dose: 50.0 mg/kg/injection, schedule: Q04DX002 (ip), vehicle: saline with Tween-80 102 % of control | [10] 102 % of control | dose: 200.0 mg/kg/injection, schedule: Q04DX002 (ip), vehicle: saline with Tween-80 91 % of control | dose: 400.0 mg/kg/injection, schedule: Q04DX002 (ip), vehicle: saline with Tween-80 94 % of control

OC(C1CCCCN1)C1CC(c2ccccc2)Nc2c(Cl)cc(Cl)cc21 (configuration not stated)
inactive: [5] 97 % of control

CCOP(=O)(Nc1ccc(F)cc1)OCC
inactive: dose: 50.0 mg/kg/injection, schedule: Q01DX001 (ip), vehicle: carboxymethylcellulose (CMC) 106 % of control | dose: 100.0 mg/kg/injection, schedule: Q01DX001 (ip), vehicle: carboxymethylcellulose (CMC) 96 % of control | dose: 200.0 mg/kg/injection, schedule: Q01DX001 (ip), vehicle: carboxymethylcellulose (CMC) 100 % of control | dose: 400.0 mg/kg/injection, schedule: Q01DX001 (ip), vehicle: carboxymethylcellulose (CMC) 102 % of control

NNC(=O)OCc1ccccc1
inactive: [10] 100 % of control

N#CC12CC3CC(CC(C3)C1)C2
inactive: dose: 5.0 mg/kg/injection, schedule: Q04DX003 (ip), vehicle: saline with Tween-80 104 % of control | dose: 10.0 mg/kg/injection, schedule: Q04DX003 (ip), vehicle: saline with Tween-80 104 % of control | dose: 20.0 mg/kg/injection, schedule: Q04DX003 (ip), vehicle: saline with Tween-80 100 % of control

O=C(/C=C/c1ccc(Cl)cc1)c1ccc(Cl)cc1
inactive: [1] 98 % of control | [2] 90 % of control | [3] 93 % of control

CCNC(=O)N1CC2CCC(C1)N2C
inactive: [5] 101 % of control | dose: 200.0 mg/kg/injection, schedule: Q04DX003 (ip), vehicle: saline 96 % of control | dose: 400.0 mg/kg/injection, schedule: Q04DX003 (ip), vehicle: saline 90 % of control

O=C(C#Cc1ccccc1)c1ccccc1
inactive: dose: 3.12 mg/kg/injection, schedule: Q01DX009 (ip), vehicle: Klucel (hydroxypropylcellulose) (HPC) 86 % of control and 98 % of control | dose: 6.25 mg/kg/injection, schedule: Q01DX009 (ip), vehicle: Klucel (hydroxypropylcellulose) (HPC) 92 % of control and 97 % of control | [7] 92 % of control and 104 % of control | [8] 86 % of control and 107 % of control | [9] 89 % of control

CC1=CCS(=O)(=O)C1
inactive: dose: 50.0 mg/kg/injection, schedule: Q01DX009 (ip), vehicle: saline 111 % of control | [4] 90 % of control

COc1cc(C)c(Br)c(OC)c1
inactive: [1] 92 % of control | [2] 99 % of control | [3] 99 % of control

CC1(C)OCC(COCc2ccccc2)O1 (configuration not stated)
inactive: [4] 96 % of control | [6] 91 % of control | dose: 400.0 mg/kg/injection, schedule: Q01DX009 (ip), vehicle: saline 96 % of control

COc1ccc2c3c(ccc2c1)C1=NCCC1(C)CC3 (configuration not stated)
inactive: dose: 100.0 mg/kg/injection, schedule: Q01DX001 (sc), vehicle: Klucel (hydroxypropylcellulose) (HPC) 101 % of control | dose: 100.0 mg/kg/injection, schedule: Q04DX003 (sc), vehicle: steriod suspending solution 105 % of control | dose: 200.0 mg/kg/injection, schedule: Q01DX001 (sc), vehicle: Klucel (hydroxypropylcellulose) (HPC) 101 % of control | dose: 200.0 mg/kg/injection, schedule: Q04DX003 (sc), vehicle: steriod suspending solution 102 % of control | dose: 400.0 mg/kg/injection, schedule: Q01DX001 (sc), vehicle: Klucel (hydroxypropylcellulose) (HPC) 93 % of control | dose: 400.0 mg/kg/injection, schedule: Q04DX003 (sc), vehicle: steriod suspending solution 108 % of control
